Data: patent US20150237838A1, “REGULATION OF INSECT POPULATIONS” (CALIFORNIA INSTITUTE OF TECHNOLOGY, priority 2014, published 2015)

Experiments:
[1] = system: Drosophila wild-type larvae; test: Antibiotic toxicity test, wild-type larvae fed antibiotic-supplemented diet; type: in vivo, Drosophila melanogaster; settings: for first instar death: larvae fed antibiotic-supplemented diet at around 1 mg/ml, n=10,000; for concentration at which antibiotic was highly toxic: wild-type larvae fed increasing amounts in diet
Protocol: As proof of principle, an embodiment of this system was developed for the fruit fly Drosophila melanogaster. As an initial test of antibiotic toxicity, Drosophila wild-type larvae were separately fed increasing amounts of either G418 or puromycin. Both antibiotics were highly toxic around 1 mg/ml such that when larvae were fed antibiotic-supplemented diet at this concentration, 100% first instar death was observed (n=10,000). Thus, these two antibiotics can be used as selection molecules in this system.

[2] = system: Opie2-tra-neo expressing flies; test: Sex selection of Opie2-tra-neo flies on G418 diet; type: in vivo, Drosophila melanogaster; settings: diet with increasing concentrations of G418; at ~5 mg/ml; n=2,000
Description: (§1) The possibility of utilizing the endogenous sex determination machinery to promote sex-specific antibiotic resistance-based selection was next tested. Sex-specific introns dsx and tra were incorporated into the coding frames of the antibiotic resistance genes pac and neo, respectively, and two types of flies were generated, one type expressing Opie2-tra-neo and another type expressing Opie2-dsx-pac. The dsx intron can be excised by splicing only in males and the tra intron can be excised by splicing only in females. This precise sex-specific splicing of these two introns is dictated by the sex determination machinery of the fly. […] The Opie2-tra-neo expressing flies were fed diet containing increasing concentrations of G418 resulting in 100% female progeny at ˜5 mg/ml (n=2,000). The Opie2-dsx-pac expressing flies were fed diet containing increasing concentrations of puromycin resulting in 100% male progeny at ˜2 mg/ml (n=500).

[3] = system: genetically engineered insects containing both antibiotic resistance markers; test: Sex selection of flies carrying combined vector (Opie2-tra-neo and Opie2-dsx-pac); type: in vivo, Drosophila
Description: The expanded insect population containing both males and females was transferred to a diet supplemented with puromycin.

[4] = system: Opie2-dsx-pac expressing flies; test: Sex selection of Opie2-dsx-pac flies on puromycin diet; type: in vivo, Drosophila melanogaster; settings: diet with increasing concentrations of puromycin; at ~2 mg/ml; n=500
Description: as §1

[5] = system: flies expressing Opie2-tra-pac; test: Sex selection of Opie2-tra-pac flies on puromycin diet; type: in vivo, Drosophila melanogaster; settings: larvae fed diet with increasing concentrations of puromycin; n=500
Description: Thus, the sex specific introns can be interchangeably used with either antibiotic resistance genes to select for either males or females.

[6] = system: transgenic flies expressing the pac gene; test: Antibiotic diet fed to transgenic flies expressing pac gene; type: in vivo, Drosophila; settings: diet with increasing concentrations of puromycin; pac under Opie2 promoter
Description: To determine if the toxicity of puromycin and neomycin could be negated, antibiotic resistance genes pac and neo were used. Two types of transgenic flies were generated each expressing one type of antibiotic resistance gene under the control of the promoter Opie2. One type of transgenic fly expressed the pac gene and the other expressed the neo gene. Transgenic flies were fed a diet supplemented with increasing concentrations of either puromycin or G418, respectively. […] Additionally, these transgenic flies were quite healthy with high fitness. Thus, the pac and neo genes could be used to counter the toxicity of […], respectively.

insects = settings: tetracycline in diet; Zeh et al., 2012; cited from earlier work

## CN[C@@H]1[C@@H](O)[C@@H](O[C@@H]2[C@@H](O)[C@H](O[C@H]3O[C@H]([C@@H](C)O)[C@@H](O)[C@H](O)[C@H]3N)[C@@H](N)C[C@H]2N)OC[C@]1(C)O [G418]
[1]
  first instar death: 100%
  concentration at which antibiotic was highly toxic: around 1 mg/ml
[2]
  female progeny: 100%
[3]; diet supplemented with increasing concentrations of G418 (FIG. 3)
  females selected: 100%

## COc1ccc(C[C@H](N)C(=O)N[C@H]2[C@@H](O)[C@H](n3cnc4c(N(C)C)ncnc43)O[C@@H]2CO)cc1 [puromycin]
[1]
  first instar death: 100%
  concentration at which antibiotic was highly toxic: around 1 mg/ml
[4]
  male progeny: 100%
[5]
  female progeny: 100%
[3]; diet supplemented with increasing concentrations of puromycin (FIG. 2)
  males selected: 100%
[3]; puromycin-supplemented diet, first instar larval stage
  sex-selective killing of progeny: female progeny were selectively killed
[6]
  toxicity of antibiotic in resistance-gene flies: negate the toxicity

## CN(C)[C@@H]1C(O)=C(C(N)=O)C(=O)[C@@]2(O)C(O)=C3C(=O)c4c(O)cccc4[C@@](C)(O)[C@H]3C[C@@H]12 [tetracycline]
insects
  side effect on insects (fitness): large fitness cost
